Test results: patent US6043223A, “Enhanced opening of abnormal brain tissue capillaries” (priority 1997, dated 2000)
Where a SMILES comes first, the peptide text is derived from it.

Legend:
[1] = test system: brain tumor capillaries; conditions: intracarotid infusion; previous studies (6-9); cited from earlier work
[2] = test system: RG2 gliomas; assay: Regional permeability (Ki) by quantitative autoradiography in rats with implanted RG2 gliomas; assay type: in vivo, rat; conditions: for effect on tumor permeability 20 minutes after stopping the intracarotid infusion (in words): [14C]-dextran
Protocol: (§1) RG2 and C6 are cell lines derived from rat gliomas induced by ethylnitrosourea (17,18). The glioma cells were kept frozen until use, then thawed and maintained in a monolayer culture in F12 medium with 10% calf serum. The rats were anesthetized with intra-peritoneal ketamine (50 mg/kg). Glial tumors were implanted into the right hemisphere by intracerebral injections of 1×10^5 glioma cells in 5 μl F12 medium (1.2% methylcellulose) by a Hamilton syringe. The coordinates used were 5 mm lateral to the bregma, and 4.5 mm deep to the dural surface.
(§2) Seven or eight days after tumor implantation, the rats were anesthetized with intra-peritoneal urethane (1 g/kg) and a polyethylene catheter was inserted retrograde through the external carotid artery to the common carotid artery bifurcation ipsilateral to the tumor. The external carotid artery and pterygopalatine artery were then ligated. Both femoral veins were cannulated for administration of drugs or tracers. One femoral artery was cannulated to monitor systemic blood pressure and the other femoral artery was cannulated to withdraw arterial blood. Body temperature was maintained at 37° C. and arterial blood gases, blood pressure, and hematocrit were monitored.
The tumor-implanted rats were grouped by tracers and by tumor types. Bradykinin (Sigma Chemical Co., St. Louis, Mo.) or PBS (control) was infused into the right carotid artery at a rate of 53.3 μl/minute (10 μg/kg/minute) for 15 minutes. In regional permeability studies, 5 minutes after the start of the intracarotid infusion, […] of [^14 C]-AIB (MW 103, Dupon-New England Nuclear Co., Boston, Mass.) or [^14 C]-Dextran (MW 70,000, Dupon-New England Nuclear Co.) was injected as an intravenous bolus. A peristaltic withdrawal pump was used to withdraw femoral arterial blood at a constant rate of […] immediately after the injection of the tracer for the determination of serum radioactivity. Fifteen minutes after the start of intracarotid infusions, the animals were killed by decapitation and the brains were rapidly removed and frozen.
Bradykinin, zaprinast or bradykinin mixed with zaprinast was infused into the right carotid artery at a rate of 53.3 μl/minute for 15 minute. The rate of infusion of bradykinin and zaprinast was 10 μg/kg/minute and 1.67 mg/kg/minute ([…]) respectively. Injection of tracer, withdrawing of arterial blood, and other protocols were in the same manner as described above.
The duration of the effect of the intracarotid bradykinin with or without zaprinast infusion in RG2 glioma was examined at three different periods by changing the time of [^14 C]-dextran injection relative to intracarotid infusion of bradykinin with or without zaprinast.
The frozen brains were mounted onto pedestals with M-1 embedding matrix (Lipshaw, Pittsburgh, Pa.) and 20 μm coronal sections were cut with a cryotome. The sections were thawmounted onto cover slips and autoradiograms were generated by co-exposing the sections on Kodak XAR-5 film with tissue calibrated [^14 C]-standards (Amersham, Arlington Heights, Ill.) for 2 weeks. The sequential section was stained with hematoxylin for the correlation of areas of histologically verified tumor areas with autoradiograms. The regional radioactivity was measured in the tumor, BST (areas within 2 mm distance from the border of the tumor), right cortex (ipsilateral cortex), left cortex (contralateral cortex), right white matter, left white matter, right basal ganglia, and left basal ganglia. Quantitative analysis of the regional radioactivity was performed using a computer (Power Macintosh 7100) and the software, Image 1.55 (NIH).
For quantitative autoradiographic examination, the regional permeability in the brain and tumor tissues were expressed by the unidirectional transfer constant, Ki value (μl/g/minute) which was determined as described in References 21, 22, 23 and 24). […]

[3] = test system: C6 gliomas; assay: Regional permeability (Ki) by quantitative autoradiography in rats with implanted C6 gliomas; assay type: in vivo, rat
Protocol: as §1, §2
The tumor-implanted rats were grouped by tracers and by tumor types. Bradykinin (Sigma Chemical Co., St. Louis, Mo.) or PBS (control) was infused into the right carotid artery at a rate of 53.3 μl/minute (10 μg/kg/minute) for 15 minutes. […] A peristaltic withdrawal pump was used to withdraw femoral arterial blood at a constant rate of […] immediately after the injection of the tracer for the determination of serum radioactivity. […]
The frozen brains were mounted onto pedestals with M-1 embedding matrix (Lipshaw, Pittsburgh, Pa.) and 20 μm coronal sections were cut with a cryotome. […] The regional radioactivity was measured in the tumor, BST (areas within 2 mm distance from the border of the tumor), right cortex (ipsilateral cortex), left cortex (contralateral cortex), right white matter, left white matter, right basal ganglia, and left basal ganglia. Quantitative analysis of the regional radioactivity was performed using a computer (Power Macintosh 7100) and the software, Image 1.55 (NIH).
For quantitative autoradiographic examination, the regional permeability in the brain and tumor tissues were expressed by the unidirectional transfer constant, Ki value (μl/g/minute) which was determined as described in References 21, 22, 23 and 24).
For all tracers, statistical comparison of regional Ki values or blood volume between same regions with/without bradykinin or zaprinast were determined using analysis of variance (ANOVA) followed by non-parametric analysis of Mann-Whitney's U test. […]

[4] = rat, in vivo
Text: as §2

[5] = Solubility of zaprinast in saline; assay type: physicochemical
Protocol: The bradykinin/bradykinin analog and zaprinast are preferably infused in the form of a pharmaceutical solution having a […] phosphate buffered saline solution as the carrier. The concentration of bradykinin in the solution is 10-40 μg/ml with the preferred concentration of zaprinast being on the order of 1 to 10 mg/ml for carotid artery administration. For intravenous administration, the concentration of bradykinin/bradykinin analog is preferably between about 15 μg/ml to 50 mg/ml with the preferred concentration of zaprinast being on the order of 2 mg/ml to 15 mg/ml. Zaprinast is not soluble directly in saline. Accordingly, it is preferred that the pharmaceutical solution be prepared by dissolving zaprinast in 1 M sodium hydroxide to form a concentrated solution of approximately 100 to 500 mg/ml zaprinast. This concentrated solution is then dissolved into phosphate buffered saline (PBS) to the final desired concentration. Bradykinin or the bradykinin analog is then added to the solution to form the final pharmaceutical preparation. The relative concentrations within the pharmaceutical preparation are adjusted as set forth above to provide a solution which is suitable for either carotid artery infusion or intravenous administration.

| SMILES | permeability in brain tumor capillaries vs normal brain capillaries (in words) [1] | transport (Ki) of either tracer in other normal brain / non-tumor regions (in words) ([2]; RG2-bearing rats, [14C]-dextran and [14C]-AIB) | Ki for AIB in BST (brain within 2 mm of the tumor) ([2]; RG2, brain surrounding tumor, intracarotid infusion 15 minutes) | Ki for dextran in BST (in words) ([2]; RG2, brain surrounding tumor, vs control) | effect on tumor permeability 20 minutes after stopping the intracarotid infusion (in words) ([2]; RG2 tumor, time course study) | Ki in tumors for [14C]-dextran, fold higher than in controls ([2]; RG2 tumor, bradykinin 10 μg/kg/minute intracarotid vs PBS control) | Ki in tumors for [14C]-AIB (MW 103) ([2]; RG2 tumor, intracarotid infusion 15 minutes (bradykinin 10 μg/kg/minute, zaprinast 1.67 mg/kg/minute), mean±SD) | transfer constant, Ki, in tumors for [14C]-dextran (MW 70,000) ([2]; RG2 tumor, intracarotid infusion 15 minutes (bradykinin 10 μg/kg/minute, zaprinast 1.67 mg/kg/minute), tracer i.v. 5 minutes after start, mean±SD) | [14C]-dextran uptake into the tumor (Ki) 10 minutes after stopping the intracarotid infusion ([2]; RG2 tumor, time course study) | transport (Ki) for either tracer in non-tumor regions (in words) ([3]; C6-bearing rats, [14C]-dextran and [14C]-AIB) | Ki in tumors for [14C]-dextran, fold higher than in controls ([3]; C6 tumor, bradykinin intracarotid vs PBS control) | blood gas parameters or hemoglobin concentration (in words) [4] | bradykinin effect on tumor permeability (Ki) at 10 minutes after infusion (in words) ([2]; RG2 tumor, FIG. 5 time course) | Ki values in RG2 tumors for both tracers (in words) ([2]; zaprinast alone, intracarotid, [14C]-dextran and [14C]-AIB) | Ki in tumors for [14C]-AIB ([3]; C6 tumor, intracarotid infusion 15 minutes (bradykinin 10 μg/kg/minute, zaprinast 1.67 mg/kg/minute)) | Ki values in C6 tumors for [14C]-dextran, increase with zaprinast alone (in words) ([3]; C6 tumor, zaprinast alone, intracarotid) | solubility in saline (in words) [5] |
| --- | --- | --- | --- | --- | --- | --- | --- | --- | --- | --- | --- | --- | --- | --- | --- | --- | --- |
| CCCCC/C=C\C\C=C/C=C/C=C/[C@@H](SC[C@H](NC(=O)CC[C@H](N)C(=O)O)C(=O)NCC(=O)O)[C@@H](O)CCCC(=O)O [LTC4, leukotriene C4] | selectively increases | – | – | – | – | – | – | – | – | – | – | – | – | – | – | – | – |
| NC(N)=NCCC[C@H](NC(=O)[C@H](Cc1ccccc1)NC(=O)[C@@H]1CCCN1C(=O)[C@H](CO)NC(=O)[C@H](Cc1ccccc1)NC(=O)CNC(=O)[C@@H]1CCCN1C(=O)[C@@H]1CCCN1C(=O)[C@@H](N)CCCN=C(N)N)C(=O)O [bradykinin] (H-RPPGFSPFR-OH) | – | did not increase | 5.31 ± 1.50 µL/g/min | not significantly increased | diminished | 8.4 fold | 26.46 ± 2.64 µL/g/min | 14.33 ± 2.96 µL/g/min | 3.89 ± 0.74 µL/g/min | did not increase | 3.1 fold | – | – | – | – | – | – |
| CCCOc1ccccc1-c1nc2nn[nH]c2c(=O)[nH]1 [zaprinast, 2-(2-propyloxyphenyl)-8-azapurin-6-one] | – | – | – | – | negligible | – | – | – | – | – | – | did not change | significantly prolonged | did not increase | 31.4 µL/g/min | not | not soluble |
